What was measured:
[1] = 298.15 K; 101.33 kPa; Liquid; Pycnometric method
[2] = refractive index (Na D-line) (dimensionless); settings: 298.15 K; 101.33 kPa; Liquid; Standard Abbe refractometry
[3] = mn = molality of the nth substance listed, in mol/kg; settings: 101 kPa, Liquid; for viscosity: Capillary tube (Ostwald / Ubbelohde) method

COCCO [2-methoxyethan-1-ol]
Settings	mass density [kg/m3]	refractive index
[1]	959.03	–
[2]	–	1.4003

CCOCCOCCO [3,6-dioxa-1-octanol] + O
viscosity [mPa·s], [3]
Settings	275.15 K	283.15 K
m1 = 0.0092	–	1.004
m1 = 0.0108	1.008	–
m1 = 0.019	–	1.008
m1 = 0.0203	1.015	–
m1 = 0.0291	–	1.013
m1 = 0.0306	1.022	–
m1 = 0.0409	1.029	–
m1 = 0.0416	–	1.019
m1 = 0.0482	–	1.023
m1 = 0.0504	1.035	–
m1 = 0.062	–	1.03
m1 = 0.0625	1.043	–
m1 = 0.0687	–	1.034
m1 = 0.0707	1.048	–
m1 = 0.0796	–	1.041
m1 = 0.0809	1.053	–
m1 = 0.0904	1.058	1.047
m1 = 0.091	–	1.047
m1 = 0.0998	–	1.053
m1 = 0.1019	–	1.054
m1 = 0.1025	1.047	–

[3]
Settings	mass density [kg/m3]
275.15 K, Pycnometric method, m1 = 0.0108	1000.05
275.15 K, Pycnometric method, m1 = 0.0203	1000.15
275.15 K, Pycnometric method, m1 = 0.0306	1000.23
275.15 K, Pycnometric method, m1 = 0.0409	1000.34
275.15 K, Pycnometric method, m1 = 0.0504	1000.42
275.15 K, Pycnometric method, m1 = 0.0625	1000.52
275.15 K, Pycnometric method, m1 = 0.0707	1000.62
275.15 K, Pycnometric method, m1 = 0.0809	1000.69
275.15 K, Pycnometric method, m1 = 0.0904	1000.79
275.15 K, Pycnometric method, m1 = 0.1025	1000.86
283.15 K, Buoyancy - hydrostatic balance with magnetic suspension - one sinker, m1 = 0.0092	999.77
283.15 K, Buoyancy - hydrostatic balance with magnetic suspension - one sinker, m1 = 0.019	999.8
283.15 K, Buoyancy - hydrostatic balance with magnetic suspension - one sinker, m1 = 0.0291	999.96
283.15 K, Buoyancy - hydrostatic balance with magnetic suspension - one sinker, m1 = 0.0416	1000.08
283.15 K, Buoyancy - hydrostatic balance with magnetic suspension - one sinker, m1 = 0.0482	1000.09
283.15 K, Buoyancy - hydrostatic balance with magnetic suspension - one sinker, m1 = 0.062	1000.22
283.15 K, Buoyancy - hydrostatic balance with magnetic suspension - one sinker, m1 = 0.0687	1000.23
283.15 K, Buoyancy - hydrostatic balance with magnetic suspension - one sinker, m1 = 0.0796	1000.34
283.15 K, Buoyancy - hydrostatic balance with magnetic suspension - one sinker, m1 = 0.0904	1000.41
283.15 K, Buoyancy - hydrostatic balance with magnetic suspension - one sinker, m1 = 0.091	1000.39
283.15 K, Buoyancy - hydrostatic balance with magnetic suspension - one sinker, m1 = 0.0998	1000.48
283.15 K, Buoyancy - hydrostatic balance with magnetic suspension - one sinker, m1 = 0.1019	1000.46

CCOCCO [2-ethoxyethan-1-ol]
Settings	mass density [kg/m3]	refractive index
[1]	925.05	–
[2]	–	1.4057

COCCOCCO [2-(2-methoxyethoxy)ethanol] + O
[3]
Settings	viscosity [mPa·s]
275.15 K, m1 = 0.0099	1.004
275.15 K, m1 = 0.0209	1.009
275.15 K, m1 = 0.0309	1.014
275.15 K, m1 = 0.0396	1.018
275.15 K, m1 = 0.052	1.023
275.15 K, m1 = 0.061	1.028
275.15 K, m1 = 0.0706	1.032
275.15 K, m1 = 0.0799	1.037
275.15 K, m1 = 0.093	1.044
275.15 K, m1 = 0.1057	1.05
283.15 K, m1 = 0.0109	1.004
283.15 K, m1 = 0.0191	1.008
283.15 K, m1 = 0.0303	1.012
283.15 K, m1 = 0.0406	1.016
283.15 K, m1 = 0.0487	1.02
283.15 K, m1 = 0.0599	1.024
283.15 K, m1 = 0.0709	1.029
283.15 K, m1 = 0.0806	1.033
283.15 K, m1 = 0.09	1.037
283.15 K, m1 = 0.0901	1.037
283.15 K, m1 = 0.1009	1.041

[3]
Settings	mass density [kg/m3]
275.15 K, Pycnometric method, m1 = 0.0099	1000.07
275.15 K, Pycnometric method, m1 = 0.0209	1000.18
275.15 K, Pycnometric method, m1 = 0.0309	1000.32
275.15 K, Pycnometric method, m1 = 0.0396	1000.42
275.15 K, Pycnometric method, m1 = 0.052	1000.56
275.15 K, Pycnometric method, m1 = 0.061	1000.66
275.15 K, Pycnometric method, m1 = 0.0706	1000.76
275.15 K, Pycnometric method, m1 = 0.0799	1000.86
275.15 K, Pycnometric method, m1 = 0.093	1000.98
275.15 K, Pycnometric method, m1 = 0.1057	1001.12
283.15 K, Buoyancy - hydrostatic balance with magnetic suspension - one sinker, m1 = 0.0109	999.8
283.15 K, Buoyancy - hydrostatic balance with magnetic suspension - one sinker, m1 = 0.0191	999.93
283.15 K, Buoyancy - hydrostatic balance with magnetic suspension - one sinker, m1 = 0.0303	1000.04
283.15 K, Buoyancy - hydrostatic balance with magnetic suspension - one sinker, m1 = 0.0406	1000.11
283.15 K, Buoyancy - hydrostatic balance with magnetic suspension - one sinker, m1 = 0.0487	1000.17
283.15 K, Buoyancy - hydrostatic balance with magnetic suspension - one sinker, m1 = 0.0599	1000.27
283.15 K, Buoyancy - hydrostatic balance with magnetic suspension - one sinker, m1 = 0.0709	1000.38
283.15 K, Buoyancy - hydrostatic balance with magnetic suspension - one sinker, m1 = 0.0806	1000.47
283.15 K, Buoyancy - hydrostatic balance with magnetic suspension - one sinker, m1 = 0.09	1000.56
283.15 K, Buoyancy - hydrostatic balance with magnetic suspension - one sinker, m1 = 0.0901	1000.59
283.15 K, Buoyancy - hydrostatic balance with magnetic suspension - one sinker, m1 = 0.1009	1000.68

From the NIST ThermoML archive (doi:10.1016/j.jct.2011.07.008)
